This passage reports IC50 results from ChEMBL document CHEMBL4680187, “Optimization of EphA2 antagonists based on a lithocholic acid core led to the identification of UniPR505, a new 3α-carbamoyloxy derivative with antiangiogenetic properties” (Eur J Med Chem, 2020).

The target of one assay is T1, Ephrin type-B receptor 3 (Mus musculus, UniProt P54754).
T1 sequence (P54754 whole entry): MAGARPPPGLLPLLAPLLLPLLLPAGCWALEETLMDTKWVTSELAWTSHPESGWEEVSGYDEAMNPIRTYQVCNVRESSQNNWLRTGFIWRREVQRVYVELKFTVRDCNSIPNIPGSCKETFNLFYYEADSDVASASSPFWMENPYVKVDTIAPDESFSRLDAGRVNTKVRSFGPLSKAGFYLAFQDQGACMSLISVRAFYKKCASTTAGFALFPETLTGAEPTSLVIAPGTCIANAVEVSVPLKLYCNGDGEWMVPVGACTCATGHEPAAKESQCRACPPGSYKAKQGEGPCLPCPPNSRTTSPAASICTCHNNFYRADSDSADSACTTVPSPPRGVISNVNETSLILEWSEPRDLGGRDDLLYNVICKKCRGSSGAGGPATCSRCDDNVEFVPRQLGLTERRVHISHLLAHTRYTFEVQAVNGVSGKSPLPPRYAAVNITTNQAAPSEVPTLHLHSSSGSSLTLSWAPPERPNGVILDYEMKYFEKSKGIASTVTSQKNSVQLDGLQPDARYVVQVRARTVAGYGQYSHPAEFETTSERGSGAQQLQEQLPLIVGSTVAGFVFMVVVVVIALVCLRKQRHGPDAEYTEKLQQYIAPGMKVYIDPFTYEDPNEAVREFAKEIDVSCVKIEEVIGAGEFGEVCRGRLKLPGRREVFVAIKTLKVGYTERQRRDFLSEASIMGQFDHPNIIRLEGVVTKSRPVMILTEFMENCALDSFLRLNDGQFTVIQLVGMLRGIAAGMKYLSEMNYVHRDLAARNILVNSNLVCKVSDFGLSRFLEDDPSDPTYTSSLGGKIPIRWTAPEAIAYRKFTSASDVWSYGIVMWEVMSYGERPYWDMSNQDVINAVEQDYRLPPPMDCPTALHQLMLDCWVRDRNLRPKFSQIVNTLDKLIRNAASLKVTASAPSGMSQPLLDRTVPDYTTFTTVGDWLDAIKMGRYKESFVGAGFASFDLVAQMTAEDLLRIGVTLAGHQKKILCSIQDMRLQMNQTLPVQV
Put plainly: Displacement of biotinylated ephrin-B1-Fc from mouse EphB3 Fc preincubated for 1 hr followed by ephrin-B1-FC addition and measured after 4 hrs by ELISA. Background: An ELISA detects its analyte on a solid surface through an enzyme-linked reagent.

For the next assay, the target named is T2, Ephrin type-A receptor 8 (Mus musculus, UniProt O09127).
T2 sequence (O09127 whole entry): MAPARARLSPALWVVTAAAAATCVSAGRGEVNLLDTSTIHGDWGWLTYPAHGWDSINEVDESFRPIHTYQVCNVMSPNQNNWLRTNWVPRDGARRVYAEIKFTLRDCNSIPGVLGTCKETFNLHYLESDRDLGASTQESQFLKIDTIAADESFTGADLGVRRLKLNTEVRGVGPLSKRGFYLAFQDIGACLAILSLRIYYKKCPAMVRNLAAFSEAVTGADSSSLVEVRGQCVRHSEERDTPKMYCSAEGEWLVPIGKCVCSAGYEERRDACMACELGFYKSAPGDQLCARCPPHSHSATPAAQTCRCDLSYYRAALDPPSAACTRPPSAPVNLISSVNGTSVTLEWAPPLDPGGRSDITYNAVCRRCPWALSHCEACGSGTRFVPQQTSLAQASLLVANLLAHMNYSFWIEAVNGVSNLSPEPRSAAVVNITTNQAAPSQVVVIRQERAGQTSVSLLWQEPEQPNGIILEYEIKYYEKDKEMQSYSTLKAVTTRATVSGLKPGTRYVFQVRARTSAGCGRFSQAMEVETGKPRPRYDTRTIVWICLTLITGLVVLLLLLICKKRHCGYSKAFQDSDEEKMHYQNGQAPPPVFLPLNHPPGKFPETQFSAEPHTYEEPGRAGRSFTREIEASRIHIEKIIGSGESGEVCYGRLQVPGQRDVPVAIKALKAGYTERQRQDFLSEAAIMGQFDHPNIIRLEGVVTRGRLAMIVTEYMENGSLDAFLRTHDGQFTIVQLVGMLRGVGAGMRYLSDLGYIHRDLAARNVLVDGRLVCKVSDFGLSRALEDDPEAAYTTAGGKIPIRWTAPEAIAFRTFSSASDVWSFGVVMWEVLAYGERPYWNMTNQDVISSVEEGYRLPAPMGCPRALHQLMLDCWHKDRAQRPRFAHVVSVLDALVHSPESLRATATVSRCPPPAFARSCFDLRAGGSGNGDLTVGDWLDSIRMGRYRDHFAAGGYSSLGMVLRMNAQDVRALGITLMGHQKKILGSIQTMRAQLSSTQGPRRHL
Put plainly: Displacement of biotinylated ephrin-A1-Fc from mouse EphA8 Fc preincubated for 1 hr followed by ephrin-A1-FC addition and measured after 4 hrs by ELISA.

The target in the next assay is T3, Ephrin type-B receptor 1 (Rattus norvegicus, UniProt P09759).
T3 sequence (P09759 whole entry): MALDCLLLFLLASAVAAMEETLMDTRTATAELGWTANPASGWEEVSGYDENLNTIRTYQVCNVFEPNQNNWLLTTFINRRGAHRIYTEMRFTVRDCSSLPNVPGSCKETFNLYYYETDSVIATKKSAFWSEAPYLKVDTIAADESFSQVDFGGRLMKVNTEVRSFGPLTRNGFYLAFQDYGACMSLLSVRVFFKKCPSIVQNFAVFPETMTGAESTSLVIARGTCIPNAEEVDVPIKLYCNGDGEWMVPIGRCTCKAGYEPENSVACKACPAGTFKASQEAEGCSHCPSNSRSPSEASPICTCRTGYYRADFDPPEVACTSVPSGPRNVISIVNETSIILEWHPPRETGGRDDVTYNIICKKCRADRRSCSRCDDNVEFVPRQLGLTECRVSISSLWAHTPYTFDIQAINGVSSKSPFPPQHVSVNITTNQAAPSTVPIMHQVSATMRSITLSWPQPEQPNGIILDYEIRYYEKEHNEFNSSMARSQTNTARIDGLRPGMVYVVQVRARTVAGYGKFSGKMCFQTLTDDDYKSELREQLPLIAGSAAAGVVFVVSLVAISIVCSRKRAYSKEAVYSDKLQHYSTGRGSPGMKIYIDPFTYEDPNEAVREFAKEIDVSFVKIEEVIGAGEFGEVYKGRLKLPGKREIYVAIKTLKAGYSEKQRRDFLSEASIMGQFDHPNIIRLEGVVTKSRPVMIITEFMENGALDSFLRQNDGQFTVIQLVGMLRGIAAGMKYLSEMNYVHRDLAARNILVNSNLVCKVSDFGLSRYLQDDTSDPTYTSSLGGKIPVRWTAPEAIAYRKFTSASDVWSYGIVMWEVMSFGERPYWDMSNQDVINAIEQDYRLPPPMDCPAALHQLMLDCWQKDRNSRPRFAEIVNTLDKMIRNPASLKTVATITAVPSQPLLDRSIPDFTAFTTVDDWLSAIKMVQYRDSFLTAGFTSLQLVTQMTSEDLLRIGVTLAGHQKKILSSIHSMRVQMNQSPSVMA
Put plainly: Displacement of biotinylated ephrin-B1-Fc from rat EphB1 Fc preincubated for 1 hr followed by ephrin-B1-FC addition and measured after 4 hrs by ELISA.

As a reminder, the IC50 is the point on the concentration scale where inhibition reaches its midpoint. Read a low IC50 as higher potency. For the compound `CCNC(=O)O[C@@H]1CC[C@@]2(C)[C@H](CC[C@@H]3[C@@H]2CC[C@]2(C)[C@@H]([C@H](C)CCC(=O)N[C@H](CC(=O)O)Cc4c[nH]c5ccccc45)CC[C@@H]32)C1`, the half-inhibitory concentration (IC50) is 11 µM at Ephrin type-B receptor 3, 7.7 µM at Ephrin type-A receptor 8 and > 30 µM on Ephrin type-B receptor 1.
